Source: PMC8540642, “Antineoplastic Activity of Rhus trilobata Nutt. (Anacardiaceae) against Ovarian Cancer and Identification of Active Metabolites in This Pathology” (Plants, 2021)
Like-named read-outs stand apart in the source and are kept apart here.

Experiments:
SKOV-3 cells = assay: MTT cell viability, dose-response curves 24 h; format: cell-based, human; settings: MTT, 24 h; for IC50: read-out: IC50 (half-maximal inhibitory concentration), SKOV-3
Experimental: (§1) Cultures (2 × 10^4 cells/well) were seeded with 200 μL of supplemented medium (Sigma®) in 96-well plates (Corning®, Corning, NY, USA) and incubated for 24 h. Cell treatments were 5-200 μg/mL of samples/controls for 24 h. At the end of the treatments, we added MTT (5 mg/mL, Sigma®) for 4 h of incubation, and optical density was measured at λ = 590 nm in a VariosKan® Flash (Thermo-Scientific®, Waltham, MA, USA). The half-maximal inhibitory concentration (IC50) was determined.

BEAS-2B cells = assay: MTT cell viability, dose-response curves 24 h; format: cell-based
Experimental: as §1

CACO-2 cells = assay: MTT cell viability, dose-response curves 24 h; format: cell-based; settings: MTT, 24 h; for IC50: read-out: IC50 (half-maximal inhibitory concentration), CACO-2
Experimental: as §1

CHO-K1 cells = assay: MTT cell viability, dose-response curves 24 h; format: cell-based; settings: MTT, 24 h; for IC50: read-out: IC50 (half-maximal inhibitory concentration), CHO-K1
Experimental: as §1

OVCAR-3 cells = assay: MTT cell viability, dose-response curves 24 h; format: cell-based; settings: MTT, 24 h; for IC50: read-out: IC50 (half-maximal inhibitory concentration), OVCAR-3
Experimental: as §1

[1] = system: SKOV-3 cells xenotransplant; assay: Antineoplastic activity in Nu/Nu mice with subcutaneous SKOV-3 xenotransplant; format: in vivo; set-up: key to Vascularity of tumor lesion / Fibrosis of tumor lesion: +, present; +++, abundant
Experimental: Nu/Nu mice were used to determine the antineoplastic activity of RHTR (20 female, 25 ± 5 g weight, and 6-8 weeks old). Mice were maintained in sterile conditions (25 ± 1 °C, and 12 h light/dark cycles) and ad libitum access to food (LabDiet®, Richmond, IN, USA) or water in UPEAL (CINVESTAV-IPN). The Institutional Ethics Committee approved all procedures (No. 184-16), following the Official Mexican Regulations: NOM-062-ZOO-1999 [31] and the International Guidelines (see Appendix A, NC3Rs ARRIVE Guidelines Checklist). Mice were xenotransplanted subcutaneously on the right flank with 5 × 10^6 SKOV-3 cells. The development of tumor lesions was monitored for 28 days (≈50 mm^3). Four weeks post-xenotransplantation, rodents were treated daily with 200 mg/kg/i.p. of AE, AF02, or controls for another 28 days. Finally, each week, we evaluated (i) bodyweight with an electronic bascule (CS200, Ohaus®, Parsippany, NJ, USA) and (ii) tumoral lesions with a Vernier caliper (Truper®, Jilotepec, Edo. de México, M.X.). At the end of treatments, mice were anesthetized with 0.1575 mg/250 μL 1× PBS (v/v, i.p.) of pentobarbital sodium (PiSA®, Guadalajara, Jal., M.X.) for the subsequent analyses (Figure 5).
(§2) Computed axial tomography (CAT) was performed with a Somatom Emotion™ (Siemens™) with animals in supine decubitus, full-body, and craniocaudal directions. The sequences and parameters used in the study were modifications based on the ExtrHR protocol. Ultrasonography (USG) was performed in an ultrasound system (LogiQ™ P7, General Electric-Healthcare®, Chicago, IL, USA), with real-time image, skeletal muscle preset, and Doppler application. Determination of paraclinical and histopathological studies such as hematic biometry, blood chemistry, and pathological lesions in liver, kidneys, and tumor were performed according to the protocol described by Varela-Rodríguez et al..

[2] = Paraclinical studies (blood chemistry, hematic biometry) and bodyweight in treated Nu/Nu mice; format: in vivo; settings: 28 days treatment
Experimental: Nu/Nu mice were used to determine the antineoplastic activity of RHTR (20 female, 25 ± 5 g weight, and 6-8 weeks old). […] Mice were xenotransplanted subcutaneously on the right flank with 5 × 10^6 SKOV-3 cells. […] Four weeks post-xenotransplantation, rodents were treated daily with 200 mg/kg/i.p. of AE, AF02, or controls for another 28 days. Finally, each week, we evaluated (i) bodyweight with an electronic bascule (CS200, Ohaus®, Parsippany, NJ, USA) and (ii) tumoral lesions with a Vernier caliper (Truper®, Jilotepec, Edo. de México, M.X.).
as §2

[3] = Morphometric analysis of liver and kidneys in treated Nu/Nu mice; format: in vivo
Experimental: as §2

[4] = Homo sapiens, SK-OV-3, value in brackets
[5] = Homo sapiens, BEAS-2B, MTT, read-out: IC50 (half-maximal inhibitory concentration), BEAS-2B
[6] = Homo sapiens, BEAS-2B, MTT, value in brackets, read-out: IC50 (half-maximal inhibitory concentration), BEAS-2B
[7] = Homo sapiens, Caco-2, value in brackets
[8] = Cricetulus griseus, CHO-K1, 24 h
[9] = Cricetulus griseus, CHO-K1, 24 h, value in brackets
[10] = Homo sapiens, OVCAR-3, value in brackets

Question: With myricitrin [Compound 6] as the compound, how does the “IC50 (half-maximal inhibitory concentration), SKOV-3” value (SKOV-3 cells) read?
Answer: 197 µg/mL

Question: What about the IC50 (SKOV-3 cells; value in brackets) of the same compound?
Answer: 424 µM

Question: What about the “IC50 (half-maximal inhibitory concentration), BEAS-2B” value (BEAS-2B cells; MTT) of the same compound?
Answer: 160 µg/mL

Question: What about the IC50 (BEAS-2B cells; read-out: IC50 (half-maximal inhibitory concentration), BEAS-2B, MTT, value in brackets) of the same compound?
Answer: 344 µM

Question: What about the “IC50 (half-maximal inhibitory concentration), CACO-2” value (CACO-2 cells) of the same compound?
Answer: > 200 µg/mL

Question: What about the IC50 (CACO-2 cells; value in brackets) of the same compound?
Answer: > 431 µM

Question: And the “IC50 (half-maximal inhibitory concentration), CHO-K1” value (CHO-K1 cells)?
Answer: 94 µg/mL

Question: And the IC50 (CHO-K1 cells; value in brackets)?
Answer: 202 µM

Question: And the “IC50 (half-maximal inhibitory concentration), OVCAR-3” value (OVCAR-3 cells)?
Answer: 200 µg/mL

Question: What about the IC50 (OVCAR-3 cells; value in brackets) of the same compound?
Answer: 431 µM

Question: Which results are given for `N.N.O=C([O-])C1(C(=O)[O-])CCC1.[Pt+2]` [Carboplatin, carboplatin]?
Answer: Fibrosis of tumor lesion ([1]; 1× PBS +): +; Vascularity of tumor lesion ([1]; 1× PBS +++): +; Morphology of tumor lesion ([1]; 1× PBS Cystic): Solid; necrosis percentage of tumor lesion (imaging) ([1]; Figure 3A, vehicle 35.16%): 5.19%; Tumor lesion weight ([1]; end of 28 days treatment, 1× PBS 0.34 ± 0.09): 0.14 ± 0.06 g; Tumor lesion larger diameter ([1]; end of 28 days treatment, 1× PBS 14.53 ± 2.4): 3.70 ± 0.26 mm; Tumor volume ([1]; end of 28 days treatment, 1× PBS 373.3 ± 18.1): 137.3 ± 18.6 * mm^3; PCT (plateletcrit) ([2]; 1× PBS 0.55 ± 0.30): 0.55 ± 0.29; Creatinine ([2]; 1× PBS 0.65 ± 0.2): 0.37 ± 0.26 mg/dL; Total bilirubin ([2]; 1× PBS 0.67 ± 0.16): 0.58 ± 0.2 mg/dL; Albumin ([2]; 1× PBS 1.36 ± 0.21): 1.33 ± 0.29 g/dL; Protein ([2]; 1× PBS 4.7 ± 0.56): 5.1 ± 1.46 g/dL; Erythrocytes ([2]; 1× PBS 7.92 ± 1.93): 7.81 ± 0.88 ×10^6/mm^3; Hemoglobin ([2]; 1× PBS 14.4 ± 2.13): 13.1 ± 1.61 g/dL; ALT (GPT) ([2]; 1× PBS 40.75 ± 14.5): 64.4 ± 6.87 U/L; Hematocrit ([2]; 1× PBS 44.52 ± 2.17): 40.57 ± 4.16%; Urea ([2]; 1× PBS 47.9 ± 7.16): 59.4 ± 9.99 mg/dL; Alkaline phosphatase ([2]; 1× PBS 71 ± 10.36): 66.6 ± 15.6 U/L; Glucose ([2]; 1× PBS 78.3 ± 16.6): 107 ± 14.8 mg/dL; Cholesterol ([2]; 1× PBS 85.5 ± 13.4): 108.6 ± 19.4 mg/dL; Triglycerides ([2]; 1× PBS 87.6 ± 12.01): 103.7 ± 12.7 mg/dL; AST (GOT) ([2]; 1× PBS 149.8 ± 27.29): 162.9 ± 8.2 U/L; Kidneys weight ([3]; 1X PBS 0.38 ± 0.042): 0.40 ± 0.01 g; Liver weight ([3]; 1X PBS 1.53 ± 0.14): 1.80 ± 0.10 g; Kidneys larger diameter ([3]; 1X PBS 9.34 ± 0.67): 11.5 ± 0.7 mm; Liver larger diameter ([3]; 1X PBS 29.65 ± 2.22): 30.5 ± 2.2 mm

Question: Which IC50 (SKOV-3 cells; Homo sapiens, SK-OV-3) does the source give for `O=c1c(O)c(-c2ccc(O)c(O)c2)oc2cc(O)ccc12` [Compound 16, fisetin] here?
Answer: 200 µg/mL

Question: And the IC50 (SKOV-3 cells; [4])?
Answer: 699 µM

Question: And the IC50 (BEAS-2B cells; [5])?
Answer: 50 µg/mL

Question: And the IC50 (BEAS-2B cells; [6])?
Answer: 175 µM

Question: What about the IC50 (CACO-2 cells; Homo sapiens, Caco-2) of the same compound?
Answer: 100 µg/mL

Question: What about the IC50 (CACO-2 cells; [7]) of the same compound?
Answer: 349 µM

Question: And the IC50 (CHO-K1 cells; [8])?
Answer: 46 µg/mL

Question: What about the IC50 (CHO-K1 cells; [9]) of the same compound?
Answer: 161 µM

Question: What about the IC50 (OVCAR-3 cells; Homo sapiens, OVCAR-3) of the same compound?
Answer: 200 µg/mL

Question: What about the IC50 (OVCAR-3 cells; [10]) of the same compound?
Answer: 699 µM

Question: With `COC(=O)c1cc(O)c(O)c(O)c1` [Compound 2, methyl 3,4,5-trihydroxybenzoate] as the compound, how does the IC50 (SKOV-3 cells; Homo sapiens, SK-OV-3) read?
Answer: > 200 µg/mL

Question: What about the IC50 (SKOV-3 cells; [4]) of the same compound?
Answer: > 1090 µM

Question: And the IC50 (BEAS-2B cells; [5])?
Answer: 200 µg/mL

Question: What about the IC50 (BEAS-2B cells; [6]) of the same compound?
Answer: 1090 µM

Question: And the IC50 (CACO-2 cells; Homo sapiens, Caco-2)?
Answer: 100 µg/mL

Question: And the IC50 (CACO-2 cells; [7])?
Answer: 543 µM

Question: And the IC50 (CHO-K1 cells; [8])?
Answer: 130 µg/mL

Question: And the IC50 (CHO-K1 cells; [9])?
Answer: 706 µM

Question: What about the IC50 (OVCAR-3 cells; Homo sapiens, OVCAR-3) of the same compound?
Answer: > 200 µg/mL

Question: What about the IC50 (OVCAR-3 cells; [10]) of the same compound?
Answer: > 1090 µM
